Measured values from patent US20050209157A1, “Short bioactive peptides and methods for their use” (priority 2001, published 2005).
No end group written: not given here.

Tests used:
[1] = test system: yeast (Saccharomyces cerevisiae); assay: Antimicrobial assay I, yeast assay in RPMI 1640; format: cell-based; conditions: RPMI 1640 media
[2] = in vitro; conditions: human, WI38 normal lung fibroblast cells, LD50 WI38, WI38 normal lung fibroblast line, MTT, 24 hours with peptide
[3] = test system: human red blood cells (RBC); assay: in vitro; format: cell-based; conditions: hemolytic assay, concentration at 50% hemolysis, 1 hour at 37° C.
[4] = test system: WI38; conditions: MTT, 24 hours with peptide; for WI38 LD50: normal fibroblast line; for LD50 WI38: WI38 normal lung fibroblast line
[5] = test system: SW480; assay: Anti-cancer assay, MTT, LD50; format: cell-based; conditions: SW480 colon adenocarcinoma line, 24 hours with peptide
From the text: (§1) Numbers are LD50 values (μg/mL).

[6] = test system: PC3; assay: Anti-cancer assay, MTT, LD50; format: cell-based; conditions: 24 hours with peptide, prostate adenocarcinoma
From the text: as §1

[7] = test system: HeLaS3; assay: Anti-cancer assay, MTT, LD50; format: cell-based; conditions: 24 hours with peptide, cervical carcinoma
From the text: as §1

[8] = test system: BMKC; assay: Anti-cancer assay, MTT, LD50; format: cell-based; conditions: BMKC cloned melanoma line, 24 hours with peptide
From the text: as §1

[9] = test system: MCF7; assay: Anti-cancer assay, MTT, LD50; format: cell-based; conditions: MCF7 breast adenocarcinoma line, MTT, 24 hours with peptide
From the text: as §1

[10] = test system: H1299; assay: Anti-cancer assay, MTT, LD50; format: cell-based; conditions: 24 hours with peptide, lung large cell carcinoma
From the text: as §1

[11] = test system: Pseudomonas aeruginosa ATCC 9027; assay: Antimicrobial assay I, MIC by OD measurement; format: cell-based; conditions: 37° C. for 24 hours, absorbance 620 nm
[12] = test system: Staphylococcus aureus ATCC 6538; assay: Antimicrobial assay I, MIC by OD measurement; format: cell-based; conditions: 37° C. for 24 hours, absorbance 620 nm

Substance	yeast (MIC or MFC) [1]	CC50 at 24 h [2] [µg/mL]	LD50 [3]	WI38 LD50 [4]	LD50 SW480 [5]	PC3 LD50 [6]	HeLaS3 LD50 [7]	LD50 BMKC [8]	LD50 MCF7 [9]	H1299 LD50 [10]	paerug9027 (MIC) [11]	staph6538 (MIC) [12]	LD50 WI38 [4]
FAKLA-NH2 [P128, FAKLA-NH2]	200 µg/mL	500	> (> indicates greater than 1000)	500 µg/mL	530 µg/mL	> (> indicates greater than 1000)	700 µg/mL	330 µg/mL	500 µg/mL	> (> indicates greater than 1000)	100 µg/mL	> (> indicates greater than 200 μg/mL)	–
FAKLLAKLAKKFAL-NH2 [P120, FAKLLAKLAKKFAL-NH2]	200 µg/mL	600	> (> indicates greater than 1000)	600 µg/mL	630 µg/mL	> (> indicates greater than 1000)	810 µg/mL	660 µg/mL	730 µg/mL	620 µg/mL	200 µg/mL	50 µg/mL	–
VALALKALKKL-NH2 [P180]	> (> indicates greater than 200 μg/mL)	940	> (> indicates greater than 1000)	940 µg/mL	600 µg/mL	> (> indicates greater than 1000)	760 µg/mL	770 µg/mL	950 µg/mL	> (> indicates greater than 1000)	> (> indicates greater than 200 μg/mL)	200 µg/mL	–
FAKIIAKIAKIAKKIL-NH2 [P139]	200 µg/mL	550	> (> indicates greater than 1000)	550 µg/mL	> (> indicates greater than 1000)	> (> indicates greater than 1000)	> (> indicates greater than 1000)	525 µg/mL	625 µg/mL	850 µg/mL	25 µg/mL	50 µg/mL	–
FALAKALKKAL-NH2 [P166, FALAKALKKAL-NH2]	> (> indicates greater than 200 μg/mL)	–	> (> indicates greater than 1000)	> (> indicates greater than 1000)	> (> indicates greater than 1000)	> (> indicates greater than 1000)	> (> indicates greater than 1000)	> (> indicates greater than 1000)	> (> indicates greater than 1000)	> (> indicates greater than 1000)	> (> indicates greater than 200 μg/mL)	> (> indicates greater than 200 μg/mL)	> (> indicates greater than 1000)
FAKLLAKLAKKEL-NH2 [P126]	> (> indicates greater than 200 μg/mL)	–	> (> indicates greater than 1000)	> (> indicates greater than 1000)	> (> indicates greater than 1000)	> (> indicates greater than 1000)	> (> indicates greater than 1000)	> (> indicates greater than 1000)	> (> indicates greater than 1000)	> (> indicates greater than 1000)	> (> indicates greater than 200 μg/mL)	> (> indicates greater than 200 μg/mL)	> (> indicates greater than 1000)
FAKGVGKVGKKAL-NH2 [P137, FAKGVGKVGKKAL-NH2]	> (> indicates greater than 200 μg/mL)	–	> (> indicates greater than 1000)	> (> indicates greater than 1000)	> (> indicates greater than 1000)	> (> indicates greater than 1000)	> (> indicates greater than 1000)	> (> indicates greater than 1000)	> (> indicates greater than 1000)	> (> indicates greater than 1000)	> (> indicates greater than 200 μg/mL)	> (> indicates greater than 200 μg/mL)	> (> indicates greater than 1000)
FALAKKALKKAKKAL-NH2 [P40, FALAKKALKKAKKAL-NH2]	100 µg/mL	–	> (> indicates greater than 1000)	> (> indicates greater than 1000)	> (> indicates greater than 1000)	435 µg/mL	> (> indicates greater than 1000)	> (> indicates greater than 1000)	760 µg/mL	> (> indicates greater than 1000)	25 µg/mL	100 µg/mL	> (> indicates greater than 1000)
FAKLLAKLAKK-NH2 [P151]	200 µg/mL	–	> (> indicates greater than 1000)	> (> indicates greater than 1000)	> (> indicates greater than 1000)	> (> indicates greater than 1000)	> (> indicates greater than 1000)	> (> indicates greater than 1000)	> (> indicates greater than 1000)	> (> indicates greater than 1000)	> (> indicates greater than 200 μg/mL)	> (> indicates greater than 200 μg/mL)	> (> indicates greater than 1000)
FAFGKGIGKVGKKLL-NH2 [P133]	> (> indicates greater than 200 μg/mL)	–	> (> indicates greater than 1000)	> (> indicates greater than 1000)	> (> indicates greater than 1000)	> (> indicates greater than 1000)	> (> indicates greater than 1000)	> (> indicates greater than 1000)	> (> indicates greater than 1000)	> (> indicates greater than 1000)	> (> indicates greater than 200 μg/mL)	> (> indicates greater than 200 μg/mL)	> (> indicates greater than 1000)
FALKALKK-NH2 [P145]	200 µg/mL	–	> (> indicates greater than 1000)	> (> indicates greater than 1000)	> (> indicates greater than 1000)	> (> indicates greater than 1000)	240 µg/mL	> (> indicates greater than 1000)	> (> indicates greater than 1000)	> (> indicates greater than 1000)	100 µg/mL	200 µg/mL	> (> indicates greater than 1000)
FAKKLAKKAKLAKKL-NH2 [P77]	200 µg/mL	–	> (> indicates greater than 1000)	> (> indicates greater than 1000)	> (> indicates greater than 1000)	> (> indicates greater than 1000)	> (> indicates greater than 1000)	125 µg/mL	> (> indicates greater than 1000)	> (> indicates greater than 1000)	100 µg/mL	200 µg/mL	> (> indicates greater than 1000)
FAKKLKKLAKKL-NH2 [P79]	100 µg/mL	–	> (> indicates greater than 1000)	> (> indicates greater than 1000)	> (> indicates greater than 1000)	> (> indicates greater than 1000)	> (> indicates greater than 1000)	830 µg/mL	540 µg/mL	> (> indicates greater than 1000)	200 µg/mL	100 µg/mL	> (> indicates greater than 1000)
FAKAIAKIAFGKGIGKVGKKLL-NH2 [P134]	200 µg/mL	–	> (> indicates greater than 1000)	> (> indicates greater than 1000)	740 µg/mL	> (> indicates greater than 1000)	> (> indicates greater than 1000)	> (> indicates greater than 1000)	> (> indicates greater than 1000)	> (> indicates greater than 1000)	> (> indicates greater than 200 μg/mL)	100 µg/mL	> (> indicates greater than 1000)
